Measured values published in patent publication US8722867B2, “Gene therapy vectors and cytosine deaminases” (priority 2008, dated 2014).

Test system: TU-2449 tumors
Assay: HPLC analysis of 5-FC and 5-FU in excised TU-2449 tumors
Type: in vivo, mice
Conditions: Groups 2 and 3: PBS instead of vector, 5-FC 250 or 500 mg/kg IP
Experimental: The study consisted of 6 groups of female mice (see Table below). All groups underwent intracranial administration into the right striatum of 1E4 TU-2449 cells administered/mouse on Day 0. At Day 4, all groups received intracranial/intratumoral administration of AC3-YCD2 (V) vector at 2.4E6 TU/5 ul (Lot#T511019) or PBS buffer control.
AC3-yCD2 (V) (5 μL) was infused at 0.33 μL per minute (15 minutes, followed by a hold of 5 minutes) intracranially at the same coordinates as TU-2449 cells were injected.
From each brain, tumors were isolated and trimmed if large enough for multiple analyses (more than 0.05 g). Tumors sections for HPLC analysis were crushed in a 1.5 mL centrifuge tube using a plunger from a 1 mL syringe. Crushed samples were mixed with 150 uL RIPA buffer and vortexed vigorously for 10 minutes. Samples were spun at 4° C. at 20000 rcf for 10 minutes. Supernatants were removed and mixed thoroughly with 150 uL of 10% trichloroacetic acid and spun as above. […] Data was expressed in relative milli absorbance units (mAU) of peak area from the chromatograms.

Nc1nc(=O)[nH]cc1F [5-FC, 5-fluorocytosine]
5-FC and 5-FU HPLC signals in tumor: detectable 5-FC signals but no signal for 5-FU
